Experimental data as given in PubChem BioAssay AID2060903 (Molecular Pharmacology Branch, DTP, NCI, 2025).

Test system: 377384-186-R-J1-PDC complex spheroid viability
Assay: Anticancer human tumor 377384-186-R-J1-PDC patient-derived pancreatic carcinoma cell line growth inhibition [RAS]
Conditions: for IC50: curve of first compound; for viability, T/C: stronger effect = lower value; active = viability on the fitted dose curve at most 10% of control; inactive = the rest
Outline: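 Multi-cell-type spheroids: tumor cells plus HUVEC endothelial cells and mesenchymal stem cells. RAS-pathway inhibitors were combined with targeted agents, each dosed in half-log steps down from clinical Cmax, or from 10 microM when Cmax was unknown.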

[1] = second compound 0.00316 µM, first compound 0.00316 µM
[2] = second compound 0.00316 µM, first compound 0.01 µM
[3] = second compound 0.00316 µM, first compound 0.0316 µM
[4] = second compound 0.00316 µM, first compound 0.1 µM
[5] = second compound 0.00316 µM, first compound 0.316 µM
[6] = second compound 0.00316 µM, first compound 1 µM
[7] = second compound 0.01 µM, first compound 0.00316 µM
[8] = second compound 0.01 µM, first compound 0.01 µM
[9] = second compound 0.01 µM, first compound 0.0316 µM
[10] = second compound 0.01 µM, first compound 0.1 µM
[11] = second compound 0.01 µM, first compound 0.316 µM
[12] = second compound 0.01 µM, first compound 1 µM
[13] = second compound 0.0316 µM, first compound 0.00316 µM
[14] = second compound 0.0316 µM, first compound 0.01 µM
[15] = second compound 0.0316 µM, first compound 0.0316 µM
[16] = second compound 0.0316 µM, first compound 0.1 µM
[17] = second compound 0.0316 µM, first compound 0.316 µM
[18] = second compound 0.0316 µM, first compound 1 µM
[19] = second compound 0.1 µM, first compound 0.00316 µM
[20] = second compound 0.1 µM, first compound 0.01 µM
[21] = second compound 0.1 µM, first compound 0.0316 µM
[22] = second compound 0.1 µM, first compound 0.1 µM
[23] = second compound 0.1 µM, first compound 0.316 µM
[24] = second compound 0.1 µM, first compound 1 µM
[25] = second compound 0.316 µM, first compound 0.00316 µM
[26] = second compound 0.316 µM, first compound 0.01 µM
[27] = second compound 0.316 µM, first compound 0.0316 µM
[28] = second compound 0.316 µM, first compound 0.1 µM
[29] = second compound 0.316 µM, first compound 0.316 µM
[30] = second compound 0.316 µM, first compound 1 µM
[31] = second compound 1 µM, first compound 0.00316 µM
[32] = second compound 1 µM, first compound 0.01 µM
[33] = second compound 1 µM, first compound 0.0316 µM
[34] = second compound 1 µM, first compound 0.1 µM
[35] = second compound 1 µM, first compound 0.316 µM
[36] = second compound 1 µM, first compound 1 µM
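Also: spheroids exposed to compounds for seven days before readout.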

CC1(C)CCC(Nc2ncc(C(F)(F)F)c(-c3c[nH]c4c(P(C)(C)=O)c(C#N)ccc34)n2)CN1 (stereo unspecified) + C#Cc1c(F)ccc2cc(O)cc(-c3ncc4c(N5CC6CCC(C5)N6)nc(OCC56CCCN5CC(F)C6)nc4c3F)c12
active: viability, T/C (second compound 0.1 µM, first compound 0.003 µM) 8.6% | viability, T/C (second compound 0.1 µM, first compound 0.00949 µM) 7.96% | viability, T/C (second compound 0.1 µM, first compound 0.03 µM) 7.41% | viability, T/C (second compound 0.1 µM, first compound 0.0949 µM) 7.16% | viability, T/C (second compound 0.1 µM, first compound 0.3 µM) 6.43% | viability, T/C (second compound 0.316 µM, first compound 0.000949 µM) 4.28% | viability, T/C (second compound 0.316 µM, first compound 0.003 µM) 5.25% | viability, T/C (second compound 0.316 µM, first compound 0.00949 µM) 2.68% | viability, T/C (second compound 0.316 µM, first compound 0.03 µM) 4.16% | viability, T/C (second compound 0.316 µM, first compound 0.0949 µM) 3.74% | viability, T/C (second compound 0.316 µM, first compound 0.3 µM) 2.89% | viability, T/C (second compound 1 µM, first compound 0.000949 µM) 4.34% | viability, T/C (second compound 1 µM, first compound 0.003 µM) 2.56% | viability, T/C (second compound 1 µM, first compound 0.00949 µM) 2.74% | viability, T/C (second compound 1 µM, first compound 0.03 µM) 3.25% | viability, T/C (second compound 1 µM, first compound 0.0949 µM) 2.68% | viability, T/C (second compound 1 µM, first compound 0.3 µM) 2.91% | viability, T/C (second compound 3.16 µM, first compound 0.000949 µM) 2.73% | viability, T/C (second compound 3.16 µM, first compound 0.003 µM) 2.34% | viability, T/C (second compound 3.16 µM, first compound 0.00949 µM) 1.84% | viability, T/C (second compound 3.16 µM, first compound 0.03 µM) 2.23% | viability, T/C (second compound 3.16 µM, first compound 0.0949 µM) 2.14% | viability, T/C (second compound 3.16 µM, first compound 0.3 µM) 2.47% | viability, T/C (second compound 10 µM, first compound 0.000949 µM) 1.18% | viability, T/C (second compound 10 µM, first compound 0.003 µM) 1.24% | viability, T/C (second compound 10 µM, first compound 0.00949 µM) 1.33% | viability, T/C (second compound 10 µM, first compound 0.03 µM) 1.3% | viability, T/C (second compound 10 µM, first compound 0.0949 µM) 0.94% | viability, T/C (second compound 10 µM, first compound 0.3 µM) 0.79%
< 0.949 nM: IC50 (second compound 0.0316 µM) | IC50 (second compound 0.1 µM) | IC50 (second compound 0.316 µM) | IC50 (second compound 1 µM) | IC50 (second compound 3.16 µM) | IC50 (second compound 10 µM)
inactive: viability, T/C (second compound 0.0316 µM, first compound 0.000949 µM) 22.5% | viability, T/C (second compound 0.0316 µM, first compound 0.003 µM) 20.6% | viability, T/C (second compound 0.0316 µM, first compound 0.00949 µM) 14.8% | viability, T/C (second compound 0.0316 µM, first compound 0.03 µM) 14.3% | viability, T/C (second compound 0.0316 µM, first compound 0.0949 µM) 11.5% | viability, T/C (second compound 0.0316 µM, first compound 0.3 µM) 10.4% | viability, T/C (second compound 0.1 µM, first compound 0.000949 µM) 12.3%

C=CC(=O)Nc1cc(Nc2nccc(-c3cn(C)c4ccccc34)n2)c(OC)cc1N(C)CCN(C)C + C=CC(=O)N1CCN(c2nc(OCC3CCCN3C)nc3c(F)c(-c4nc(N)cc(C)c4C(F)(F)F)c(Cl)cc23)C(C)C1
800 nM: IC50 (second compound 1 µM)
inactive: viability, T/C [1] 99.4% | viability, T/C [2] 90.1% | viability, T/C [3] 98.1% | viability, T/C [4] 81.3% | viability, T/C [5] 61% | viability, T/C [6] 43.9% | viability, T/C [7] 87.6% | viability, T/C [8] 86.8% | viability, T/C [9] 87.8% | viability, T/C [10] 81.2% | viability, T/C [11] 59.9% | viability, T/C [12] 42.2% | viability, T/C [13] 96.7% | viability, T/C [14] 81.5% | viability, T/C [15] 90.7% | viability, T/C [16] 79.1% | viability, T/C [17] 64.6% | viability, T/C [18] 47.5% | viability, T/C [19] 96.4% | viability, T/C [20] 88.8% | viability, T/C [21] 102% | viability, T/C [22] 77.3% | viability, T/C [23] 70% | viability, T/C [24] 46% | viability, T/C [25] 92.1% | viability, T/C [26] 98.3% | viability, T/C [27] 83.8% | viability, T/C [28] 77.9% | viability, T/C [29] 64.8% | viability, T/C [30] 48.4% | viability, T/C [31] 93.2% | viability, T/C [32] 84.1% | viability, T/C [33] 85.2% | viability, T/C [34] 83.9% | viability, T/C [35] 65.6% | viability, T/C [36] 46.2%
905 nM: IC50 (second compound 0.316 µM)
602 nM: IC50 (second compound 0.01 µM)
851 nM: IC50 (second compound 0.0316 µM)
659 nM: IC50 (second compound 0.00316 µM)
821 nM: IC50 (second compound 0.1 µM)

O=C(c1ccc(F)c(F)c1Nc1ccc(I)cc1F)N1CC(O)([C@@H]2CCCCN2)C1 + C=CC(=O)N1CCN(c2nc(OCC3CCCN3C)nc3c(F)c(-c4nc(N)cc(C)c4C(F)(F)F)c(Cl)cc23)C(C)C1
36.7 nM: IC50 (second compound 0.0316 µM)
inactive: viability, T/C [1] 81.3% | viability, T/C [2] 79.2% | viability, T/C [3] 58.5% | viability, T/C [4] 23.8% | viability, T/C [7] 94.9% | viability, T/C [8] 77.9% | viability, T/C [9] 51.3% | viability, T/C [10] 23.6% | viability, T/C [13] 93.3% | viability, T/C [14] 73.3% | viability, T/C [15] 58.9% | viability, T/C [16] 20% | viability, T/C [19] 94.6% | viability, T/C [20] 68.5% | viability, T/C [21] 62.3% | viability, T/C [22] 20.7% | viability, T/C [25] 77.7% | viability, T/C [26] 74.7% | viability, T/C [27] 57.5% | viability, T/C [28] 22.5% | viability, T/C [31] 88.8% | viability, T/C [32] 80.8% | viability, T/C [33] 62% | viability, T/C [34] 24.5%
33 nM: IC50 (second compound 0.01 µM)
42.5 nM: IC50 (second compound 0.00316 µM)
37.3 nM: IC50 (second compound 0.1 µM)
45.1 nM: IC50 (second compound 1 µM)
active: viability, T/C [5] 3.06% | viability, T/C [6] 0.45% | viability, T/C [11] 2.14% | viability, T/C [12] 0.43% | viability, T/C [17] 2.38% | viability, T/C [18] 0.3% | viability, T/C [23] 2.8% | viability, T/C [24] 0.78% | viability, T/C [29] 2.78% | viability, T/C [30] 0.48% | viability, T/C [35] 2.77% | viability, T/C [36] 0.56%
40.6 nM: IC50 (second compound 0.316 µM)
